Patent publication US8629173B2, “Solid forms comprising (+)-2-[1-(3-ethoxy-4-methoxyphenyl)-2-methylsulfonylethyl]-4-acetylaminoisoindoline-1,3-dione, compositions thereof, and uses thereof” (Celgene Corporation, priority 2002, dated 2014)

Experiments:
[1] = system: SEB-induced IFN-γ production; experiment: cells; format: cell-based; details: Homo sapiens, PBMC, 18 h, read-out: IFN-γ IC50
[2] = system: severe plaque-type psoriasis; experiment: Phase 2 open-label pilot study in patients with severe plaque-type psoriasis
[3] = system: CD18 expression on neutrophils; experiment: fMLF-induced CD18 expression on neutrophils; format: cell-based; details: Neutrophil; human neutrophils, 30 nM fMLF
Procedure: CD18/CD11b (Mac-1) expression on neutrophils was measured as previously described (Derian et al., 1995, J. Immunol., 154:308-3 17) with the following modifications. Neutrophils were isolated as described above, then resuspended in complete medium at 1×10^6 cells/ml, pretreated with compounds at 10, 1, 0.1, 0.01, and 0 μM in duplicate at a final DMSO concentration of 0.1% for 10 minutes at 37° C. 5% CO2. Cells were then stimulated with 30 nM fMLF for 30 minutes and then chilled to 4° C. Cells were treated with rabbit IgG (Jackson ImmunoResearch Labs, West Grove, Pa., USA) (10 μg/1×10^6 cells) to block Fc receptors, stained with CD18-FITC and CD11b-PE (Becton Dickinson), and analyzed by flow cytometry on a FACSCalibur. CD18/CD11b expression (mean fluorescence) in the absence of stimulation was subtracted from all samples to obtain inhibition curves and calculate IC50 values.

[4] = system: moderate to severe plaque-type psoriasis; experiment: Phase 2 randomized placebo-controlled study in moderate-to-severe psoriasis; format: in vivo, human
Procedure: This phase 2, multicenter, randomized, double-blind, placebo-controlled, parallel-group, dose-comparison study evaluated the efficacy and safety of Compound A in subjects with moderate to severe plaque-type psoriasis who were candidates for systemic therapy. This study included a 12-week treatment phase followed by a 4-week observational follow-up phase. A total of 260 subjects were randomized to receive Compound A 20 mg BID, Compound A 20 mg QD, or placebo for 12 weeks. The primary endpoint for this study was the proportion of subjects treated with Compound A who achieved a 75% reduction in Psoriasis Area and Severity Index score (“PASI-75”) at week 12/last treatment in reference to the baseline visit. Last treatment is defined as the last PASI assessment completed during the 12-week treatment phase.

[5] = 20 mg orally daily for 29 days plus follow-up
[6] = 20 mg orally daily, 29 days, 17 evaluable
[7] = 20 mg orally daily, Day 29, 8 responders
[8] = 20 mg orally daily, Day 29, 19 enrolled
[9] = 20 mg orally daily, Day 29, of enrolled patients
[10] = Nonresponder, 20 mg orally daily
[11] = 20 mg BID, week 12/last treatment

CCOc1cc(C(CS(C)(=O)=O)N2C(=O)c3cccc(NC(C)=O)c3C2=O)ccc1OC (single isomer, unassigned; (+)) [Compound A, (+)-2-[1-(3-ethoxy-4-methoxyphenyl)-2-methylsulfonylethyl]-4-acetylaminoisoindoline-1,3-dione]
IC50 [1]: 46 nM
patients with abnormal HLA-DR that had normal HLA-DR at Day 29 ([2]; 20 mg orally daily): Two
patients with abnormal ICAM-1 at baseline that had normal ICAM-1 at Day 29 ([2]; 20 mg orally daily): Three
patients with abnormal K16 at baseline that had normal K16 at Day 29 ([2]; 20 mg orally daily): one
patients with abnormal fillagrin at baseline that had normal fillagrin at Day 29 ([2]; 20 mg orally daily): three
treatment-related adverse event: headache ([2]; 20 mg orally daily for 29 days): 26.3%
treatment-related adverse event: nausea ([2]; 20 mg orally daily for 29 days): 15.8%
deaths [2, 5]: No deaths
premature discontinuation due to an adverse event [2, 5]: nor did any patient prematurely discontinue due to an adverse event
patients with evaluable biopsies demonstrating a 20% reduction in epidermal skin thickness ([2]; 20 mg orally daily for 29 days, Day 29, 15 evaluable): 53.3%
evaluable patients demonstrating improvement in static Physician's Global Assessment (sPGA) [2, 6]: 52.9%
evaluable patients showing a reduction from baseline in psoriasis body surface area (BSA) [2, 6]: 58.8%
mean reduction from baseline in dermal CD83+ cells in responders ([2]; 20 mg orally daily, Day 29): 25.86%
mean reduction from baseline in epidermal CD83+ cells in responders ([2]; 20 mg orally daily, Day 29): 32.50%
reduction of CD11c cells in the dermis in responders ([2]; 20 mg orally daily, Day 29): 18.50%
reduction of CD11c cells in the epidermis in responders ([2]; 20 mg orally daily, Day 29): 40.16%
decrease of dermal T-cells in responders [2, 7]: 28.79%
decrease of epidermal T-cells in responders [2, 7]: 42.56%
enrolled subjects demonstrating improvement in PASI [2, 8]: 73.7%
patients showing >50% reduction from baseline in total PASI score [2, 8]: 15.8%
mean reduction of epidermal thickness ([2]; 20 mg orally daily, Day 29, all 15 evaluable subjects, p=0.015): 20.5%
enrolled patients showing a reduction from baseline in psoriasis BSA [2, 9]: 52.6%
enrolled patients showing an improvement in sPGA [2, 9]: 47.4%
overall safety ([2]; 20 mg p.o. QD for 29 days): safe
Percentage Reduction at Day 29: CD11c, Dermis [2, 10]: −21.19%
Percentage Reduction at Day 29: CD11c, Epidermis [2, 10]: −2.54%
Percentage Reduction at Day 29: CD83+, Dermis [2, 10]: +0.46%
Percentage Reduction at Day 29: CD83+, Epidermis [2, 10]: −16.31%
Percentage Reduction at Day 29: T-cells, Dermis [2, 10]: −17.34%
Percentage Reduction at Day 29: T-cells, Epidermis [2, 10]: +8.74%
Percentage Reduction at Day 29: CD11c, Dermis ([2]; Responder, 20 mg orally daily): −18.50%
Percentage Reduction at Day 29: CD11c, Epidermis ([2]; Responder, 20 mg orally daily): −40.16%
Percentage Reduction at Day 29: CD83+, Dermis ([2]; Responder, 20 mg orally daily): −25.86%
Percentage Reduction at Day 29: CD83+, Epidermis ([2]; Responder, 20 mg orally daily): −32.50%
Percentage Reduction at Day 29: T-cells, Dermis ([2]; Responder, 20 mg orally daily): −28.79%
Percentage Reduction at Day 29: T-cells, Epidermis ([2]; Responder, 20 mg orally daily): −42.56%
reduction of mRNA expression of iNOS in lesional skin (RT-PCR) ([2]; after 29 days of treatment, 20 mg orally daily, p=0.025): 66.5%
IC50 [3]: 390 nM
psoriasis flare during the observational follow-up period ([4]; 20 mg BID group, 4-week follow-up): No subjects
study drug-related serious adverse events ([4]; 20 mg BID or 20 mg QD, 12 weeks): No study drug-related serious adverse events
mean decrease in PASI from baseline [4, 11]: 52%
proportion of subjects achieving PASI-50 [4, 11]: 57%
proportion of subjects achieving PASI-90 [4, 11]: 14%
proportion of subjects achieving PASI-75 ([4]; 20 mg BID, week 12/last treatment, P=0.023 vs placebo): 24%
tolerability and safety ([4]; 12 weeks of treatment): well tolerated and safe
